Where two headings read alike, the source gives them in different places. A value given as a limit tells only on which side of the number the result lay.

The target in data set [1] is CB1 receptor (Homo sapiens (Human), UniProt P21554). Description: CB1 receptor radioligand binding assay, membranes from human source. To be noted: human (h) CB1 receptor; read-out: CB1R Ki (nM) (h). On the procedure:
(§1) Radioligand binding assays: Binding affinity was determined by a radioligand binding assay. The different BB8-conjugates binding to CB1 and CB2 receptors was assessed in competition displacement assays using [^3H]CP-55.940 as the radioligand and crude membranes from mouse brain for CB1 receptor and human kidney cells for CB2 receptor.
(§2) CB1 receptor binding assay: Mouse brain membranes were used as the source material for CB1 receptors. The displacement of specifically bound tritiated CP-55.940 from these membranes using a standard filtration assay was used to determine the Ki values for the test compounds. Briefly. 20 μg of protein was incubated for 1 h at 30° C. in the presence of 0.5 nM [^3H]CP-55,940 and various concentrations (10^−5M-10^−11M) of test compound/control, final volume of 1 mL. The incubation was terminated by rapid filtration and washing, and the amount of specifically bound [^3H]CP-55,940 was determined. Briefly, membranes with bound [^3H]CP-55,940 were separated and washed from free ligand by vacuum filtration, adsorbing the membrane onto a Whatman glass microfiber filter paper ([…], Cat #1821271). Finally, the Whatman filter paper with adsorbed membranes was cut and placed in scintillation liquid (Ultima Gold) for 1 h at 25° C. followed by a β counter reading of bound [^3H]CP-55,940 radioligand. All data were in triplicates with Ki values determined using GraphPad Prism 7.02 analysis software. […] In some cases, membranes from human source were used to determine CB1 receptor binding affinity.

Data set [2] has as its target T1, CB1 receptor (Mus musculus (Mouse), UniProt P47746). Nature of the data set: CB1 receptor radioligand binding assay, [3H]CP-55,940 displacement, mouse brain membranes. The note with it: mouse (m) CB1 receptor; read-out: CB1R Ki (nM) (m). On the procedure: as §1, §2
Data set [3] has as its target T1, CB1 receptor. Description: [35S]GTPγS binding assay for CB1 receptor, mouse brain membranes. The data set is classed as biochemical. To be noted: nature of binding: agonist/antagonist/inverse agonist. On the procedure:
For CB1 receptor-mouse brains were dissected and P2 membranes prepared and resuspended at ˜2 μg protein/μL in 1 ml assay buffer (50 mM Tris HCl, 9 mM MgCl2, 0.2 mM EDTA, 150 mM NaCl; pH 7.4). Ligand-stimulated [^35S]GTPγS binding was assayed as described previously (Tam et al., JCI 2010). Briefly, membranes (10 μg protein) were incubated in assay buffer containing 100 μM GDP, 0.05 nM [^35S]GTPγS, test compounds at various concentrations (CP55940/Rimonabant as controls and test compounds for BB8 conjugates), and 1.4 mg/mL fatty acid-free BSA in siliconized glass tubes. Membranes with bound ligand ([^35S]GTPγS) were separated from free ligand by vacuum filtration and were analyzed using β counter as described above. Non-specific binding was determined using 10 μM GTPS (cold GTP). Basal binding was assayed in the absence of the tested compound and in the presence of GDP.

The nature of data set [4]: Tissue distribution: brain, plasma and liver levels after oral dosing. The data set is classed as in vivo, C57BL/6J mice. The note with it: male, C57BL/6J, mouse, in vivo, po, 10 mg/kg. Here is the method:
Tissue distribution and pharmacokinetics: Tissue levels of antagonist: 3 male C57BL/6J mice (7-9 weeks, PO group) were used in this study. Mice were fasted prior to administration of test article and had access to food 4 hours post dosing. Appropriate amount of test article was accurately weighted and mixed with the appropriate volume of vehicle to get a clear oral solution. The formulation was prepared on the day of dosing, and mice were dosed via oral gavage up to 4 hr after formulation was prepared. After 1 hour, mice were scarified and about 200 μL blood was collected from cardiac puncture followed by plasma preparation. Brain and liver were removed and further processed. Dose formulation and sample analysis was performed by LC-MS/MS method.
The peripherality of selected BB8 conjugates (BNS) was evaluated in vivo measuring their respective brain, plasma, and liver levels 1 hr following 10 mg/kg oral administration.

A further data set has as its target CB2 receptor (Homo sapiens (Human), UniProt P34972). Description: CB2 receptor radioligand binding assay, [3H]CP-55,940 displacement, human kidney membranes. To be noted: read-out: hCB2R Ki. On the procedure:
as §1
CB2 receptor binding assay: Human kidney membranes were used as the source material for CB2 receptors. The displacement of specifically bound tritiated CP-55,940 from these membranes using a standard filtration assay was used to determine the Ki values for the test compounds. Briefly, 1.25 μg of protein was incubated for 1.5 h at 30° C. in the presence of 0.5 nM [^3H]CP-55,940 and various concentrations (10^−5M-10^−11M) of test compound/control, final volume of 1 mL. The incubation was terminated by rapid filtration and washing, and the amount of specifically bound [^3H]CP-55,940 was determined. Briefly, membranes with bound [^3H]CP-55,940 were separated and washed from free ligand by vacuum filtration, adsorbing the membrane onto a Whatman glass microfiber filter paper ([…], Cat #1821271). Finally, the Whatman filter paper with adsorbed membranes was cut and placed in scintillation liquid (Ultima Gold) for 1 h at 25° C. followed by a β counter reading of bound [^3H]CP-55,940 radioligand. All data were in triplicates with Ki values determined using GraphPad Prism 7.02 analysis software.

Another data set relates to MDR1-MDCKII cells. Description: MDR1-MDCK II cell permeation assay (bi-directional permeability, P-gp efflux). The class given is in vitro ADME. Here is the method:
(§3) Test and reference compounds were diluted with transport buffer (HBSS with 10 mM Hepes, pH 7.4) from stock solution to a concentration of 2 μM (DMSO<1%) and applied to the apical or basolateral side of the cell monolayer. Permeation of the test compounds from A to B direction or B to A direction was determined in duplicate with/without P-gp inhibitor (GF120918, 10 μM). […] The plate was incubated for 2.5 hours in CO2 incubator at 37±1° C., with 5% CO2 at saturated humidity without shaking. In addition, the efflux ratio of each compound was also determined. Test and reference compounds were quantified by LC-MS/MS analysis based on the peak area ratio of analyte/IS.
(§4) The in vitro bi-directional permeability across MDR1-MDCKII cells including P-glycoprotein (Pgp, ABCB1) efflux in the presence and absence of a P-gp inhibitor is an indicator as to the tendency of an orally administered compound to penetrate the brain.

Another data set concerns P-gp (MDR1, ABCB1). Described as above. The class given is in vitro ADME. The note with it: dog; for Papp at 2.5 h, 2 μM: A to B. On the procedure:
as §3, §4

In the next data set the test system is HepG2 Cells. Nature of the data set: Cell Viability Assay in HepG2 Cells at 72 h. The class given is cell-based, human. The note with it: HepG2, 72 h. Here is the method:
The liver plays a central role in transforming and clearing chemicals, and therefore is susceptible to toxicity of these agents. BNS808, BNS822 and other selected compounds were tested in the HepG2 assay using […] to evaluate cytotoxicity.

The next data set addresses CYP 2D6 (Homo sapiens (Human), UniProt P10635). Nature of the data set: CYP inhibition in human liver microsomes. To be noted: CYP isozyme 2D6, standard inhibitor. The data set is classed as in vitro ADME. On the procedure:
To evaluate the in vitro CYP inhibition of BNS808 and BNS822, the compounds were tested in human liver microsomes that are rich in drug metabolizing enzymes, including CYPs 1A2, 2C9, 2C19, 2D6, 3A4.
On the technique in general: Microsomes from liver hold many membrane-bound enzymes, among them those of drug oxidation.

[5] abbreviates: MDCK-MDR1, pH 7.4, with GF120918, 10 μM, efflux ratio in the presence of P-gp inhibitor GF120918, read-out: MDR1 B:A/A:B (+P-gp inhibitor).
The mark [6] stands for this setting: MDCK-MDR1, pH 7.4, efflux ratio, without P-gp inhibitor, read-out: MDR1 B:A/A:B.

CB1 receptor (Homo sapiens (Human), UniProt P21554), sequence (P21554 whole entry): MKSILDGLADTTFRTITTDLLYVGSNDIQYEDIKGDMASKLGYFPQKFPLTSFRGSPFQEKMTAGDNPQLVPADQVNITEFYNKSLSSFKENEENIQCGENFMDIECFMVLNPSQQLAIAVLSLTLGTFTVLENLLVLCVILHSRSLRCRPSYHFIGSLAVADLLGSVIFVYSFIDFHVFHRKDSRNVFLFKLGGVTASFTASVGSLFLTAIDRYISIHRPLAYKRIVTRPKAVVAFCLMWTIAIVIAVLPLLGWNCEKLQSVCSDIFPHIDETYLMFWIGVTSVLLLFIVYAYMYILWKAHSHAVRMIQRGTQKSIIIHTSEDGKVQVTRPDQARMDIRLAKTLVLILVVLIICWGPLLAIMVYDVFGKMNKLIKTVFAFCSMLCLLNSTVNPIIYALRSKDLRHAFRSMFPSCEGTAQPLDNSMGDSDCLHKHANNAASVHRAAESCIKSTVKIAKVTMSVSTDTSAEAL
CB2 receptor, sequence (P34972 whole entry): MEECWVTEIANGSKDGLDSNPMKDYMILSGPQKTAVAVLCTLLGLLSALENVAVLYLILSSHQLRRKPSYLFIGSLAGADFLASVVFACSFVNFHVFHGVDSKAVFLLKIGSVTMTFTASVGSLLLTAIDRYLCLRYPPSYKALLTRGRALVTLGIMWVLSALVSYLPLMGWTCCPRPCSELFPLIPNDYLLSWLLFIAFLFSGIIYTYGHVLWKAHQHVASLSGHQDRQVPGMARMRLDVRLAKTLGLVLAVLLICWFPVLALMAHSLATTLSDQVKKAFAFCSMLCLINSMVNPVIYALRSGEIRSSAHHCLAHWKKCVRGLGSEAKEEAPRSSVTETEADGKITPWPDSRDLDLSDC
T1 sequence (P47746 whole entry): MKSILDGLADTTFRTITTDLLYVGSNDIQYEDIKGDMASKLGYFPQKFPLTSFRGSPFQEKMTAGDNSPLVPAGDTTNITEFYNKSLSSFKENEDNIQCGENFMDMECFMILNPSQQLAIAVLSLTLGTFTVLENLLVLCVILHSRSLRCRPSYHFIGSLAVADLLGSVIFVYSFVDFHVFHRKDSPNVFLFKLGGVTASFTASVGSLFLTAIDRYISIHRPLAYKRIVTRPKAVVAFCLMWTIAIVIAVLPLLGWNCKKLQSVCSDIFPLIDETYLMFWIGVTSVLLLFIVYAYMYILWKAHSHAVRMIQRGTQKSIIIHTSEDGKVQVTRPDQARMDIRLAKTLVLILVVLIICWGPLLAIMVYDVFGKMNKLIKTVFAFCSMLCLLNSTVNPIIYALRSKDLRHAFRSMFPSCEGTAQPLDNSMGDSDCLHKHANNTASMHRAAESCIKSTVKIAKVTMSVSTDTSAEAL
CYP 2D6, sequence (P10635 whole entry): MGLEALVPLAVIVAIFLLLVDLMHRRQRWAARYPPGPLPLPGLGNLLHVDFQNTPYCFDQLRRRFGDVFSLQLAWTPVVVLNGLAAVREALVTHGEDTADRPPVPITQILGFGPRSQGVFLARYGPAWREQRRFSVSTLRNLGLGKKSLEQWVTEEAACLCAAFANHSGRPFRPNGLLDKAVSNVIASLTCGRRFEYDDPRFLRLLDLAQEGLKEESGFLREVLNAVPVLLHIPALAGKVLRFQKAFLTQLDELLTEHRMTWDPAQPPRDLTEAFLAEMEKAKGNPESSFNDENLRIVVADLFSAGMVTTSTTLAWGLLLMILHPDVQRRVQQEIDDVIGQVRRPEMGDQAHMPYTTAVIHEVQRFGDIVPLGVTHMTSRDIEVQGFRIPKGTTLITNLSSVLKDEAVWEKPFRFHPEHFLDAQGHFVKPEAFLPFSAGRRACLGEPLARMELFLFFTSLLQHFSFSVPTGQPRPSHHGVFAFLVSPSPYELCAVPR

Usually Ki stands for the equilibrium dissociation constant of an inhibitor or competing ligand from its target. As for `O=C(NC1CCCOc2c1nn(-c1ccccc1Cl)c2-c1ccc(Cl)cc1)c1nc[nH]n1` (centres unmarked) [BNS801, N-[2-(2-chlorophenyl)-3-(4-chlorophenyl)-5,6,7,8-tetrahydrooxepino[3,2-c]pyrazol-8-yl]-1H-1,2,4-triazole-3-carboxamide], the Ki on CB1 receptor [1] is 232 nM; on CB1 receptor [2], 805 nM.
For orientation: Kp means the ratio of the level in a tissue or fluid to that in plasma or blood. A word on the Papp: it is a coefficient for how fast a substance crosses the barrier. Higher therefore signals fast passage. As for `O=C(NC1CCCOc2c1nn(-c1ccccc1Cl)c2-c1ccc(Cl)cc1)c1cccnc1` (centres unmarked) [BNS803, N-[2-(2-chlorophenyl)-3-(4-chlorophenyl)-5,6,7,8-tetrahydrooxepino[3,2-c]pyrazol-8-yl]pyridine-3-carboxamide], the Ki at CB1 receptor [1] is 6.48 nM; at CB2 receptor, above 9110 nM; on CB1 receptor [2], 22.4 nM. In addition, at CB1 receptor [3], the “mCB1R GTPγ[^35S] (activity)” value was “Inverse agonist”. Moreover, the Kp at 1 h in data set [4] was 1.6. The P-gp substrate result with MDR1-MDCKII cells is reported as “No”. For the same compound, in the data set with MDR1-MDCKII cells, the “Rank Papp” value is reported as “High”. For the same compound, the efflux ratio at 2.5 h, 2 μM with P-gp (MDR1, ABCB1) (setting [5]) was determined as 0.63; in the data set on P-gp (MDR1, ABCB1) (setting [6]) it was 0.77. In addition, the Papp at 2.5 h, 2 μM in the data set with P-gp (MDR1, ABCB1) (MDCK-MDR1, pH 7.4) was found to be 13.2 ×10⁻⁶ cm/s.
On to `CC(C)(Oc1ccc(Cl)cc1)C(=O)NC1CCCOc2c1nn(-c1ccccc1Cl)c2-c1ccc(Cl)cc1` (centres unmarked) [BNS804, 2-(4-chlorophenoxy)-N-[2-(2-chlorophenyl)-3-(4-chlorophenyl)-5,6,7,8-tetrahydrooxepino[3,2-c]pyrazol-8-yl]-2-methyl-propanamide], for which the Ki was found to be 1.96 nM at CB1 receptor [1], 5700 nM on CB2 receptor and 1.16 nM at CB1 receptor [2]. In addition, at CB1 receptor [3], the “mCB1R GTPγ[^35S] (activity)” value is given as “Antagonist”.
Turning to `O=C(NC1CCCOc2c1nn(-c1ccccc1Cl)c2-c1ccc(Cl)cc1)c1cnccn1` (centres unmarked) [BNS805, N-[2-(2-chlorophenyl)-3-(4-chlorophenyl)-5,6,7,8-tetrahydrooxepino[3,2-c]pyrazol-8-yl]pyrazine-2-carboxamide], the Ki worked out at 8.75 nM at CB1 receptor [1], 8340 nM on CB2 receptor and 77.8 nM at CB1 receptor [2]. Also, the “mCB1R GTPγ[^35S] (activity)” value on CB1 receptor [3] is recorded as “Inverse agonist”. The P-gp substrate entry in the data set with MDR1-MDCKII cells was “Partial”. For the same compound, the “Rank Papp” value in the data set with MDR1-MDCKII cells is “Moderate”. The efflux ratio at 2.5 h, 2 μM with P-gp (MDR1, ABCB1) (setting [5]) was found to be 0.55; with P-gp (MDR1, ABCB1) (setting [6]), 0.82. This compound also displayed a Papp at 2.5 h, 2 μM with P-gp (MDR1, ABCB1) (MDCK-MDR1, pH 7.4) of 4.93 ×10⁻⁶ cm/s.
`O=C(NC1CCCOc2c1nn(-c1ccccc1Cl)c2-c1ccc(Cl)cc1)c1ncc[nH]1` (centres unmarked) [BNS806, N-[2-(2-chlorophenyl)-3-(4-chlorophenyl)-5,6,7,8-tetrahydrooxepino[3,2-c]pyrazol-8-yl]-1H-imidazole-2-carboxamide]: the Ki at CB1 receptor [1] was 23.7 nM; at CB2 receptor, above 9110 nM; at CB1 receptor [2], 165 nM. On CB1 receptor [3], the “mCB1R GTPγ[^35S] (activity)” value is “Antagonist; In. Agonist >[c]”.
For orientation: IC50 means the concentration at which inhibition is half-maximal. Turning to `Cc1ccc(S(=O)(=O)NC2CCCOc3c2nn(-c2ccccc2Cl)c3-c2ccc(Cl)cc2)cc1` (centres unmarked) [BNS807, N-[2-(2-chlorophenyl)-3-(4-chlorophenyl)-5,6,7,8-tetrahydrooxepino[3,2-c]pyrazol-8-yl]-4-methyl-benzenesulfonamide], the figures for the Ki at CB1 receptor [1], at CB2 receptor and at CB1 receptor [2] were 1.4 nM, 1650 nM and 10 nM, respectively. The “mCB1R GTPγ[^35S] (activity)” value at CB1 receptor [3] is “Inverse agonist”. In addition, the IC50 in the data set on HepG2 Cells (Homo sapiens, read-out: Relative IC50) was determined as 18000 nM.
For the compound `CS(=O)(=O)NC1CCCOc2c1nn(-c1ccccc1Cl)c2-c1ccc(Cl)cc1` (centres unmarked) [BNS809, N-[2-(2-chlorophenyl)-3-(4-chlorophenyl)-5,6,7,8-tetrahydrooxepino[3,2-c]pyrazol-8-yl]methanesulfonamide], the Ki was 7.7 nM on CB1 receptor [1], above 9110 nM on CB2 receptor and 33.8 nM on CB1 receptor [2]. Besides, the “mCB1R GTPγ[^35S] (activity)” value at CB1 receptor [3] is “Antagonist”.
`CS(=O)(=O)N1CCC(C(=O)NC2CCCOc3c2nn(-c2ccccc2Cl)c3-c2ccc(Cl)cc2)CC1` (centres unmarked) [BNS815, N-[2-(2-chlorophenyl)-3-(4-chlorophenyl)-5,6,7,8-tetrahydrooxepino[3,2-c]pyrazol-8-yl]-1-methylsulfonyl-piperidine-4-carboxamide]: the “mCB1R GTPγ[^35S] (activity)” value at CB1 receptor [3] was “Antagonist”. Besides, at CB2 receptor, the Ki came out at 6310 nM. In addition, in the data set on MDR1-MDCKII cells, the P-gp substrate result was “P-gp substrates and Yes”; the “Rank Papp” value is given as “High”. The efflux ratio at 2.5 h, 2 μM in the data set on P-gp (MDR1, ABCB1) (setting [5]) was 0.63. Also, the Papp at 2.5 h, 2 μM in the data set on P-gp (MDR1, ABCB1) (MDCK-MDR1, pH 7.4) is 10.1 ×10⁻⁶ cm/s. On CB1 receptor [2], the Ki was 18 nM. In addition, in the data set with HepG2 Cells (read-out: Absolute IC50), the IC50 came to 55900 nM.
The % Inhibition is the share of the control response that was lost under treatment. Read a low % Inhibition as a weak effect. As for `C=C[C@H]1C[N@@]2CC[C@H]1C[C@@H]2[C@@H](O)c1ccnc2ccc(OC)cc12` [Quinidine, reference compound], the “% Inhibition” value on CYP 2D6 turned out to be 96.2%.

Values taken from patent US20240189287A1, “PERIPHERALLY RESTRICTED CB1 RECEPTOR BLOCKERS AND USES THEREOF” (BIONANOSIM (BNS) LTD, priority 2021, published 2024).
